Assay results taken from patent US20230286973A1, “PROTEIN SECRETION INHIBITORS” (KEZAR LIFE SCIENCES, priority 2020, published 2023).

Assays:
[1] = test system: PD1-ss+10aa/Gaussia Luciferase; assay: Dox-Induced PD1-ss-Gluc Assay; type: cell-based; conditions: 24 hr Dox induction; 293FRT/TO cells; mean; read-out: 24 hr Dox Inducible PD1ssGluc 293FRT/TO: Mean IC50
Method in brief: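 Flp-In 293 T-REx cells stably carrying a doxycycline-inducible Gaussia luciferase fused to the PD1 signal sequence plus 10 aa were plated the day before. Compound dilutions in DMSO/media containing doxycycline were then added and incubated at 37 °C, 5% CO2. Data for undefined stereochemistry refer to stereoisomer mixtures.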

[2] = test system: TNFα-FL/Gaussia Luciferase; assay: Dox Induced TNFα-FL-Gluc Assay; type: cell-based; conditions: for IC50: 24 hr Dox induction, 293FRT/TO cells, mean, read-out: 24 hr Dox Inducible TNFaFLGluc 293FRT/TO: Mean IC50; for 24 hr Dox Inducible TNFaFLGluc 293FRT/TO: TNF/PD1: ratio of TNFaFLGluc IC50 to PD1ssGluc IC50, '<=>' given where both are I.A.
Method in brief: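 Stereoisomer mixtures were tested where stereochemistry is not drawn. Induction used doxycycline added together with compound dilutions in DMSO/media to Flp-In 293 T-REx cells carrying a T-REx-regulated TNFα (aa 1-233)-Gaussia luciferase construct, then incubated at 37 °C, 5% CO2.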

[3] = test system: HER3-ss+4aa/Gaussia Luciferase; assay: Dox-Induced Her3-ss-Gluc Assay; type: cell-based; conditions: 24 hr Dox induction; 293FRT/TO cells; mean; read-out: 24 hr Dox Inducible Her3(ss + 4)Gluc 293FRT/TO: Mean IC50
Method in brief: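 Cells were seeded a day ahead, then given compound diluted in DMSO/media with doxycycline to induce expression of the HER3 signal sequence (+4 aa)–Gaussia luciferase fusion. Incubation was at 37° C., 5% CO2, in a stable Flp-In 293 T-REx line.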

[4] = test system: IL-2-FL/Gaussia Luciferase; assay: Dox Induced IL2-FL-Gluc Assay; type: cell-based; conditions: for IC50: 24 hr Dox induction, 293FRT/TO cells, mean, read-out: 24 hr Dox Inducible IL2FLGluc 293FRT/TO: Mean IC50; for 24 hr Dox Inducible IL2FLGluc 293FRT/TO: IL2/PD1: ratio of IL2FLGluc IC50 to PD1ssGluc IC50, '<=>' given where both are I.A.
Method in brief: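 Cells are plated one day ahead, then receive compound dilutions in DMSO/media with doxycycline and incubate at 37° C, 5% CO2. They are Flp-In 293 T-REx cells expressing a full-length IL-2 (amino acids 1-153)–Gaussia luciferase fusion under T-REx control.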

[5] = test system: multiple myeloma cell line NCI-H929; assay: H929 Cell Viability Assay; type: cell-based, human; conditions: Homo sapiens, NCI-H929, 48 h, NCI-H929 cells, Celltiter-Glo
Method in brief: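 Luminescent ATP detection (CellTiter-Glo) after 48 hours of compound exposure measures viability. Cells were plated in RPMI 1640 containing 10% fetal bovine serum and kept at 37° C under 5% CO2.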

[6] = test system: multiple myeloma cell line U266B1; assay: U266 Cell Viability Assay; type: cell-based, human; conditions: Homo sapiens, U-266, 48 h, U266B1 cells, Celltiter-Glo
Method in brief: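 Steps: culture in RPMI 1640 plus 10% FBS and 2 mM glutamine; plate and add compound dilutions; incubate 48 hours at 37° C., 5% CO2; add CellTiter-Glo and quantify luciferase signal.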

[7] = Liver Microsome Stability Assay (rat); conditions: rat liver microsomes, with NADPH, 1.0 uM compound
Procedure: (§1) Stability of a compound was assessed in the presence of liver microsomes from various sources—mouse, rat, monkey and human liver microsomes. 1.0 uM compound, 0.4% DMSO in 0.1 M Potassium Phosphate with 1.0 mg/mL liver microsomes, were incubated at 37° C. with or without 1 mM NADPH. The samples were quenched at 0, and 30 minutes.

[8] = Liver Microsome Stability Assay (mouse); conditions: mouse liver microsomes, with NADPH, 1.0 uM compound
Procedure: as §1

[9] = Liver Microsome Stability Assay (human); conditions: human liver microsomes, with NADPH, 1.0 uM compound
Procedure: as §1

[10] = Liver Microsome Stability Assay (monkey); conditions: monkey liver microsomes, with NADPH, 1.0 uM compound
Procedure: as §1

| Structure (SMILES) | IC50 [1] [µM] | IC50 [2] [µM] | 24 hr Dox Inducible TNFaFLGluc 293FRT/TO: TNF/PD1 [2] | IC50 [3] [µM] | IC50 [4] [µM] | 24 hr Dox Inducible IL2FLGluc 293FRT/TO: IL2/PD1 [4] | EC50 [5] [µM] | EC50 [6] [µM] | Liver Microsome Stability (Multiple Species): Rat - % Remaining after 30 min w/NADPH [7] [%] | Liver Microsome Stability (Multiple Species): Mouse - % Remaining after 30 min w/NADPH [8] [%] | Liver Microsome Stability (Multiple Species): Human - % Remaining after 30 min w/NADPH [9] [%] | Liver Microsome Stability (Multiple Species): Monkey - % Remaining after 30 min w/NADPH [10] [%] |
| --- | --- | --- | --- | --- | --- | --- | --- | --- | --- | --- | --- | --- |
| N#CCCCCn1cccc1C(=O)Nc1nc([C@H]2CCCN2c2ccccc2)cs1 [Compound C1, (R)-1-(4-cyanobutyl)-N-(4-(1-phenylpyrrolidin-2-yl)thiazol-2-yl)-1H-pyrrole-2-carboxamide] | 0.455 | 10 | 22.1 | 1.33 | 1.26 | 2.8 | 24.1 | > 25 | 7.64 | 23.2 | 29.3 | 0.35 |
| N#CCCCn1cccc1C(=O)Nc1nc([C@H]2CCCN2c2ccccc2)cs1 [Compound C2, (R)-1-(3-cyanopropyl)-N-(4-(1-phenylpyrrolidin-2-yl)thiazol-2-yl)-1H-pyrrole-2-carboxamide] | 0.483 | 9.74 | 20.2 | 1.38 | 1.52 | 3.1 | > 25 | > 25 | 17.6 | 18 | 33.9 | 0.23 |
| O=C(Nc1nc([C@H]2CCCN2c2ccccc2)cs1)c1cccn1CCC1CCOC1 (stereo partly drawn) [Compound C3, N-(4-((R)-1-phenylpyrrolidin-2-yl)thiazol-2-yl)-1-(2-(tetrahydrofuran-3-yl)ethyl)-1H-pyrrole-2-carboxamide] | 1.11 | 15.1 | 13.5 | 2.27 | 3.04 | 2.7 | 16.3 | > 25 | 4.35 | 9.29 | 16 | 8.3 |
| O=C(Nc1nc([C@H]2CCCN2c2ccccc2)cs1)c1cccn1CCCCc1nnn[nH]1 [Compound C4, (R)-1-(4-(1H-tetrazol-5-yl)butyl)-N-(4-(1-phenylpyrrolidin-2-yl)thiazol-2-yl)-1H-pyrrole-2-carboxamide] | 0.782 | 16.5 | 21.1 | 1.54 | 1.94 | 2.5 | > 25 | > 25 | 62.1 | 49.1 | 96.7 | 70.3 |
| O=C(Nc1nc([C@H]2CCCN2c2ccccc2)cs1)c1cccn1Cc1ccccc1 [Compound C5, (R)-1-benzyl-N-(4-(1-phenylpyrrolidin-2-yl)thiazol-2-yl)-1H-pyrrole-2-carboxamide] | 2.2 | > 25 | >11.4 | 2.42 | 2.88 | 1.3 | > 25 | > 25 | 67.5 | 65.6 | 87.9 | 63 |
| N#CC1CC1Cn1cccc1C(=O)Nc1nc([C@H]2CCCN2c2ccccc2)cs1 (stereo partly drawn) [Compound C6, 1-((2-cyanocyclopropyl)methyl)-N-(4-((R)-1-phenylpyrrolidin-2-yl)thiazol-2-yl)-1H-pyrrole-2-carboxamide] | 2.6 | > 25 | >9.60 | 5.22 | 7.29 | 2.8 | 11.8 | 15.3 | 8.19 | 31.1 | 32.8 | 7.86 |
| NC(=O)CCCn1cccc1C(=O)Nc1nc([C@H]2CCCN2c2ccccc2)cs1 [Compound C7] | 3.7 | > 25 | >6.75 | 7.97 | > 25 | 6.8 | > 25 | > 25 | 27.6 | 26.6 | 39.7 | 10.4 |
| N#CCC1(Cn2cccc2C(=O)Nc2nc([C@H]3CCCN3c3ccccc3)cs2)CC1 [Compound C8, (R)-1-((1-(cyanomethyl)cyclopropyl)methyl)-N-(4-(1-phenylpyrrolidin-2-yl)thiazol-2-yl)-1H-pyrrole-2-carboxamide] | 3.78 | > 25 | >6.61 | 9.47 | 22.4 | 5.9 | > 25 | > 25 | 8.76 | 1.66 | 5.88 | 1.37 |
